Laboratory results from patent US11840686B2, “Modulation of prekallikrein (PKK) expression” (Ionis Pharmaceuticals, Inc., priority 2013, dated 2023).
Where “and” joins values, the source holds several entries; their conditions need not be identical. Identical values can stand only once. Strand notation (5' to 3'): a small letter for the sugar, then the base; units joined by * are phosphorothioate-linked, units joined directly phosphodiester-linked; [ ] holds rarer units or linkages, { } end groups; capitals alone tell only the bases. e = 2'-O-(2-methoxyethyl) (MOE); [5mC] = 5-methylcytosine; d = 2'-deoxy (DNA)

Key:
human PKK mRNA = assay: Dose-dependent antisense inhibition of human PKK in HepaRG cells, 0.19-5.00 uM (Example 5); format: cell-based
How it was run: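 HepaRG cells (20,000/well) were electroporated with antisense oligonucleotide at 0.19, 0.56, 1.67 and 5.00 μM and treated for about 16 hours. PKK mRNA was quantified by qRT-PCR with primer probe set RTS3454, normalised to RIBOGREEN total RNA, and IC50 was derived per oligonucleotide.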

[1] = test system: basal vascular permeability; assay: Dose-dependent effect on basal vascular permeability, Evans Blue OD600 (Example 14); format: in vivo, mouse; details: for OD600 nm of Evans Blue dye, Colon / OD600 nm of Evans Blue dye, Ears / OD600 nm of Evans Blue dye, Feet: basal
Method: The effect of varying doses on ISIS 482584 on basal vascular permeability was evaluated.
Group 1 consisted of 8 mice and was treated with PBS administered subcutaneously twice a week for 3 weeks. No other treatment was administered to Group 1 which served as a control group to measure the basal levels of vascular permeability.
Group 2 consisted of 4 mice and was treated with PBS administered subcutaneously twice a week for 3 weeks. At the end of the treatment period, the mice were intraperitoneally administered 30 μg of HOE-140. Group 2 served as a positive control for inhibition of basal vascular permeability.
Groups 3, 4, 5, 6, 7, and 8 consisted of 8 mice each and were treated with 2.5 mg/kg, 5 mg/kg, 10 mg/kg, 20 mg/kg, 40 mg/kg, or 80 mg/kg (corresponding to 5 mg/kg, 10 mg/kg, 20 mg/kg, 40 mg/kg, 80 mg/kg, or 160 mg/kg per week), respectively of ISIS 482584 administered subcutaneously twice a week for 3 weeks. […] served as the experimental treatment groups for examining the effect of varying doses of ISIS 482584 on basal vascular permeability.
All the groups were then injected with 30 mg/kg of Evans Blue solution in the tail vein. The mice were sacrificed 30 min after the Evans Blue solution administration and colons, feet, and ears were harvested and examined for permeability defects. Blood samples were taken through cardiac puncture.
The harvested tissues from the feet, colon, and ears were placed in formamide solution overnight to leach out the Evans Blue dye. The formamide solution containing feet and ear tissue was heated to 55° C. and left overnight. Higher OD values are associated with higher levels of permeability.

[2] = test system: basal and captopril-induced vascular permeability; assay: Evans Blue basal and captopril-induced vascular permeability in mice (Example 12); format: in vivo, mouse; details: for OD600 nm of Evans Blue dye, Colon / OD600 nm of Evans Blue dye, Ears / OD600 nm of Evans Blue dye, Feet / OD600 nm of Evans Blue dye, Intestine: ISIS 482584 40 mg/kg sc twice a week 4 weeks, HOE-140 30 μg ip
Method: Basal permeability is the level of vascular permeability occurring in the tissues of naïve, untreated mice. The effect of ISIS 482584 in the prevention of vascular permeability, either basal or captopril-induced, was evaluated.
Group 1 consisted of 8 mice and was treated with PBS administered subcutaneously twice a week for 4 weeks. No other treatment was administered to Group 1 which served as a control group to measure the basal levels of vascular permeability.
Group 2 consisted of 8 mice and was treated with PBS administered subcutaneously twice a week for 4 weeks. At the end of the treatment period, the mice were intraperitoneally administered 20 μg of captopril. Group 2 served as the negative control group for captopril-induced vascular permeability.
Group 3 consisted of 8 mice and was treated with PBS administered subcutaneously twice a week for 4 weeks. At the end of the treatment period, the mice were intraperitoneally administered 30 μg of HOE-140. Group 3 served as a positive control for inhibition of basal vascular permeability.
Group 4 consisted of 8 mice and was treated with PBS administered subcutaneously twice a week for 4 weeks. At the end of the treatment period, the mice were intraperitoneally administered 20 μg of captopril. The mice were also intraperitoneally administered 30 μg of HOE-140. Group 4 served as a positive control for inhibition of captopril-induced vascular permeability.
(§1) Group 5 consisted of 8 mice and was treated with 40 mg/kg of ISIS 482584 administered subcutaneously twice a week for 4 weeks. Group 5 served as an experimental treatment group for examining the effect of ISIS 482584 on basal vascular permeability.
as §1, with “Group 6” for “Group 5”, “weeks. At the end of the treatment period, the mice were intraperitoneally administered 20 μg of captopril.” for “weeks.”, “on captopril-induced” for “on basal”
All the groups were then injected with 30 mg/kg of Evans Blue solution. The mice were sacrificed 30 min after the Evans Blue solution administration and colons, feet, ears, and intestines were harvested.
The harvested tissues from the feet, colon, intestine, and ears were placed separately in formamide solution overnight to leach out the Evans Blue dye. The formamide solution containing feet and ear tissue was heated to 55° C. and left overnight.

[3] = HepaRG cells, electroporation, approximately 16 hours, Table 35
[4] = HepaRG cells, electroporation, approximately 16 hours, Table 36
[5] = HepaRG cells, electroporation, approximately 16 hours, Table 37
[6] = HepaRG cells, electroporation, approximately 16 hours, Table 38
[7] = HepaRG cells, electroporation, approximately 16 hours, Table 39
[8] = HepaRG cells, electroporation, approximately 16 hours, Table 40
[9] = Table 34, HepaRG, electroporation, ~16 h

## 531231 (eT*eA*eT*e[5mC]*eA*d[5mC]*dT*dG*dT*dA*d[5mC]*dT*dA*dG*dT*eT*eT*e[5mC]*e[5mC]*eT) [compound 531231]
Human PKK mRNA; [3]
  percent inhibition of PKK at 0.19 μM: 25%
  percent inhibition of PKK at 0.56 μM: 34%
  percent inhibition of PKK at 1.67 μM: 84%
  percent inhibition of PKK at 5.00 μM: 92%
Human PKK mRNA; [4]
  percent inhibition of PKK at 0.19 μM: 58%
  percent inhibition of PKK at 0.56 μM: 64%
  percent inhibition of PKK at 1.67 μM: 77%
  percent inhibition of PKK at 5.00 μM: 98%
Human PKK mRNA; [5]
  percent inhibition of PKK at 0.19 μM: 34%
  percent inhibition of PKK at 0.56 μM: 47%
  percent inhibition of PKK at 1.67 μM: 72%
Human PKK mRNA; [6]
  percent inhibition of PKK at 0.19 μM: 21%
  percent inhibition of PKK at 0.56 μM: 45%
  percent inhibition of PKK at 1.67 μM: 67%
  percent inhibition of PKK at 5.00 μM: 96%
Human PKK mRNA; [7]
  percent inhibition of PKK at 0.19 μM: 21%
  percent inhibition of PKK at 0.56 μM: 39%
  percent inhibition of PKK at 1.67 μM: 90%
  percent inhibition of PKK at 5.00 μM: 97%
Human PKK mRNA; [8]
  percent inhibition of PKK at 0.19 μM: 6%
  percent inhibition of PKK at 0.56 μM: 38%
  percent inhibition of PKK at 1.67 μM: 74%
  percent inhibition of PKK at 5.00 μM: 95%
Human PKK mRNA; HepaRG cells, electroporation, approximately 16 hours, Table 41
  percent inhibition of PKK at 5.00 μM: 97%
Human PKK mRNA; 0.19 0μM, HepaRG cells, electroporation, approximately 16 hours, Table 41
  percent inhibition of PKK at 0.19 0μM: 25%
Human PKK mRNA; 0.56 0μM, HepaRG cells, electroporation, approximately 16 hours, Table 41
  percent inhibition of PKK at 0.56 0μM: 55%
Human PKK mRNA; 1.67 1μM, HepaRG cells, electroporation, approximately 16 hours, Table 41
  percent inhibition of PKK at 1.67 1μM: 89%
Human PKK mRNA; 4 point dose response, HepaRG cells, Table 35
  IC50: 700 nM
Human PKK mRNA; 4 point dose response, HepaRG cells, Table 37
  IC50: 500 nM
Human PKK mRNA; 4 point dose response, HepaRG cells, Table 38
  IC50: 700 nM
Human PKK mRNA; 4 point dose response, HepaRG cells, Table 39
  IC50: 600 nM
Human PKK mRNA; 4 point dose response, HepaRG cells, Table 40
  IC50: 800 nM
Human PKK mRNA; 4 point dose response, HepaRG cells, Table 41
  IC50: 500 nM
Human PKK mRNA; HepaRG cells, 0.19 μM antisense oligonucleotide
  percent inhibition of PKK mRNA, 0.19 μM: 7% and 6%
Human PKK mRNA; HepaRG cells, 0.56 μM antisense oligonucleotide
  percent inhibition of PKK mRNA, 0.56 μM: 39% and 56%
Human PKK mRNA; HepaRG cells, 1.67 μM antisense oligonucleotide
  percent inhibition of PKK mRNA, 1.67 μM: 56% and 68%
Human PKK mRNA; HepaRG cells, 5.00 μM antisense oligonucleotide
  percent inhibition of PKK mRNA, 5.00 μM: 97%
Human PKK mRNA; HepaRG cells, 0.19-5.00 μM
  IC50: 1000 nM and 800 nM
Human PKK mRNA; [9]
  percent inhibition of PKK at 0.19 μM: 32%
  percent inhibition of PKK at 0.56 μM: 30%
  percent inhibition of PKK at 1.67 μM: 73%
  percent inhibition of PKK at 5.00 μM: 89%
Human PKK mRNA; Table 34, PKK mRNA, HepaRG, electroporation, ~16 h
  IC50: 500 nM

## NC(N)=NCCC[C@@H](N)C(=O)N[C@@H](CCCN=C(N)N)C(=O)N1CCC[C@H]1C(=O)N1C[C@H](O)C[C@H]1C(=O)NCC(=O)N[C@@H](Cc1cccs1)C(=O)N[C@@H](CO)C(=O)N1Cc2ccccc2C[C@@H]1C(=O)N1[C@H](C(=O)N[C@@H](CCCN=C(N)N)C(=O)O)C[C@@H]2CCCC[C@@H]21 [HOE-140, Icatibant, reference compound]
[1]; HOE-140 30 μg ip
  OD600 nm of Evans Blue dye, Colon: 0.24
  OD600 nm of Evans Blue dye, Ears: 0.047
  OD600 nm of Evans Blue dye, Feet: 0.09
[2]; basal (captopril No)
  OD600 nm of Evans Blue dye, Colon: 0.18
  OD600 nm of Evans Blue dye, Ears: 0.03
  OD600 nm of Evans Blue dye, Feet: 0.06
  OD600 nm of Evans Blue dye, Intestine: 0.21
[2]; captopril Yes
  OD600 nm of Evans Blue dye, Colon: 0.29
  OD600 nm of Evans Blue dye, Ears: 0.00
  OD600 nm of Evans Blue dye, Feet: 0.03
  OD600 nm of Evans Blue dye, Intestine: 0.14

## ISIS 482584: 5-10-5 MOE gapmer targeting murine PKK, GGCATATTGGTTTTTGGAAT; SEQ ID NO: 2244 (antisense eG*eG*e[5mC]*eA*eT*dA*dT*dT*dG*dG*dT*dT*dT*dT*dT*eG*eG*eA*eA*eT)
[1]; all doses (Groups 3-8), most of the tissues, vs PBS control
  basal vascular permeability: reduced basal vascular permeability
[1]; 5 mg/kg/week sc, 3 weeks
  OD600 nm of Evans Blue dye, Colon: 0.32
  OD600 nm of Evans Blue dye, Ears: 0.009
  OD600 nm of Evans Blue dye, Feet: 0.11
[1]; 10 mg/kg/week sc, 3 weeks
  OD600 nm of Evans Blue dye, Colon: 0.31
  OD600 nm of Evans Blue dye, Ears: 0.015
  OD600 nm of Evans Blue dye, Feet: 0.10
[1]; 20 mg/kg/week sc, 3 weeks
  OD600 nm of Evans Blue dye, Colon: 0.26
  OD600 nm of Evans Blue dye, Ears: 0.009
  OD600 nm of Evans Blue dye, Feet: 0.11
[1]; 40 mg/kg/week sc, 3 weeks
  OD600 nm of Evans Blue dye, Colon: 0.27
  OD600 nm of Evans Blue dye, Ears: 0.011
  OD600 nm of Evans Blue dye, Feet: 0.11
[1]; 80 mg/kg/week sc, 3 weeks
  OD600 nm of Evans Blue dye, Colon: 0.24
  OD600 nm of Evans Blue dye, Ears: 0.014
  OD600 nm of Evans Blue dye, Feet: 0.09
[1]; 160 mg/kg/week sc, 3 weeks
  OD600 nm of Evans Blue dye, Colon: 0.25
  OD600 nm of Evans Blue dye, Ears: 0.019
  OD600 nm of Evans Blue dye, Feet: 0.11
[2]; 40 mg/kg s.c. twice a week for 4 weeks, Group 5 vs. Group 1
  basal vascular permeability: reduced basal vascular permeability
[2]; 40 mg/kg s.c. twice a week for 4 weeks, Group 6 vs. Group 2
  captopril-induced vascular permeability: reduced captopril-induced vascular permeability in most tissues
[2]; basal (captopril No)
  OD600 nm of Evans Blue dye, Colon: 0.19
  OD600 nm of Evans Blue dye, Ears: 0.04
  OD600 nm of Evans Blue dye, Feet: 0.07
  OD600 nm of Evans Blue dye, Intestine: 0.22
[2]; captopril Yes
  OD600 nm of Evans Blue dye, Colon: 0.37
  OD600 nm of Evans Blue dye, Ears: 0.00
  OD600 nm of Evans Blue dye, Feet: 0.05
  OD600 nm of Evans Blue dye, Intestine: 0.22

## Tes Ges mCes Aes Aes Gds Tds mCds Tds mCds Tds Tds Gds Gds mCds Aes Aes Aes mCes Ae [ISIS 546254]
Human PKK mRNA; 4 point dose response curve (0.19-5.0 μM), HepaRG cells, electroporation
  IC50: 200 nM and 300 nM
